Measurements from the Kinase Knowledgebase extract (Sharma et al. 2016).

Assays:
MAPK14 (BALB/cJ mice) = assay: TNF-alpha Inhibition (Mice Model); settings: dose or concentration not given here
MAPK14 = MAPK14 (UniProt Q16539); assay: MAPK14 (p38) Inhibition; settings: concentration not given here
MAPK14 (human) = MAPK14 (human) (UniProt Q16539); assay: TNF-alpha Inhibition (PBMC)
Chain of MAPK14 (human) (Q16539 whole entry, looked up): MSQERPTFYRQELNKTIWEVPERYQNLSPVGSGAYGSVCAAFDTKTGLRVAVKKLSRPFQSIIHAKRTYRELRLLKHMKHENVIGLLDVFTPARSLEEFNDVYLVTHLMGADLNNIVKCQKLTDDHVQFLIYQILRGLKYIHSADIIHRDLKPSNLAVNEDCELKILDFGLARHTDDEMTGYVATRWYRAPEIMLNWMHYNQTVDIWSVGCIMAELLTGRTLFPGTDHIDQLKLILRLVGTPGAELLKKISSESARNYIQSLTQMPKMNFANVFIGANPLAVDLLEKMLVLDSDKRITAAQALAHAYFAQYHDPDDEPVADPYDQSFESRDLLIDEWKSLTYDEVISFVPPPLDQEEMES

Chain of MAPK14 (Q16539 whole entry, looked up): as above

N#CCCCC#Cc1nc(-c2ccc(F)cc2)c(-c2ccncc2)[nH]1
inhibition (MAPK14 (BALB/cJ mice)): 95%

Fc1ccc(-c2[nH]c(C=C(Br)Br)nc2-c2ccncc2)cc1
inhibition (MAPK14): 93%

C[Si](C)(C)CCOCn1c(C#CCCCCO)nc(-c2ccncc2)c1-c1ccc(F)cc1
IC50 (MAPK14 (human)): > 2000 nM

CCCCCCC#Cc1nc(-c2ccc(F)cc2)c(-c2ccncc2)n1CCCc1ccccc1
IC50 (MAPK14 (human)): 90 nM

C[Si](C)(C)CCOCn1c(C=C(Br)Br)nc(-c2ccncc2)c1-c1ccc(F)cc1
inhibition (MAPK14): 16%

C[Si](C)(C)CCOCn1c(C#CCCCC#N)nc(-c2ccncc2)c1-c1ccc(F)cc1
IC50 (MAPK14 (human)): > 2000 nM

O[C@@H](C#Cc1nc(-c2ccncc2)c(-c2ccc(F)cc2)[nH]1)c1ccccc1
IC50 (MAPK14 (human)): 400 nM

OCCCCC#Cc1nc(-c2ccc(F)cc2)c(-c2ccncc2)n1CCCc1ccccc1
inhibition (MAPK14): 98%

OCCCC#Cc1nc(-c2ccc(F)cc2)c(-c2ccncc2)n1CCCc1ccccc1
inhibition (MAPK14): 99%
